Results taken from PubChem BioAssay (NCI).
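Method: 48-hour compound exposure of cells in 96-well plates, five concentrations, linear interpolation of endpoints. At the GI50, growth is halved. TGI denotes the concentration required for complete inhibition of growth.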

What was measured:
Test in all cases: NCI tumour cell line growth inhibition, 48 h
SW-620 colon = system: SW-620 colon
ACHN renal = system: ACHN renal
EKVX NSCLC = system: EKVX NSCLC
DLD-1 colon = system: DLD-1 colon
HL-60(TB) leukemia = system: HL-60(TB) leukemia
HOP-62 NSCLC = system: HOP-62 NSCLC
M14 melanoma = system: M14 melanoma
NCI-H226 lung = system: NCI-H226 lung
KM20L2 colon = system: KM20L2 colon

Structure (SMILES) | TGI (SW-620 colon) [µM] | TGI (ACHN renal) [µM] | TGI (EKVX NSCLC) [µM] | TGI (DLD-1 colon) [µM] | TGI (HL-60(TB) leukemia) [µM] | TGI (HOP-62 NSCLC) [µM] | TGI (M14 melanoma) [µM] | TGI (NCI-H226 lung) [µM] | GI50 (SW-620 colon) [µM] | GI50 (ACHN renal) [µM] | GI50 (EKVX NSCLC) [µM] | GI50 (HL-60(TB) leukemia) [µM] | GI50 (KM20L2 colon) [µM] | TGI (KM20L2 colon) [µM] | GI50 (HOP-62 NSCLC) [µM] | GI50 (M14 melanoma) [µM] | GI50 (NCI-H226 lung) [µM]
CC(C)(C)c1ccc(OCCOCCOc2ccc(C(C)(C)C)cc2S(N)(=O)=O)c(S(N)(=O)=O)c1 | > 100 | > 100 | > 100 | > 100 | > 100 | > 100 | > 100 | > 100 |  |  |  |  |  |  |  |  | 
O=C(/C=C(\[O-])c1ccccc1)CCCCCCC(=O)/C=C(\[O-])c1ccccc1.O=C(/C=C(\[O-])c1ccccc1)CCCCCCC(=O)/C=C(\[O-])c1ccccc1.O=C(/C=C(\[O-])c1ccccc1)CCCCCCC(=O)/C=C(\[O-])c1ccccc1.[Y+3].[Y+3] | > 50 | > 50 | > 50 |  | > 50 | > 50 | > 50 | > 50 | > 50 | 40.3 | > 50 | 14 | > 50 | > 50 | 18.8 | > 50 | 39.2
CCCCC(C(=O)C(=O)Nc1ccccc1CC)C(=O)C(C)C (stereo not drawn) | > 100 | > 100 | > 100 | > 100 | > 100 |  | > 100 | > 100 |  |  |  |  |  | > 100 |  |  | 
CN(C)c1ccc(/C=c2/sc3nc(=O)c(-c4ccccc4NC(=O)C(F)(F)F)nn3c2=O)cc1 | > 100 | > 100 | > 100 | > 100 |  | > 100 | > 100 | > 100 |  |  |  |  |  |  |  |  | 
O=C1c2ccccc2C2(O)N(c3ccccc3)C(=S)N(c3ccccc3)C12O (stereo not drawn) | > 100 | > 100 | > 100 | > 100 |  | > 100 | > 100 | > 100 |  |  |  |  |  | > 100 |  |  | 
ON1CCc2c([nH]c3ccccc23)C1c1ccc(Cl)cc1 (stereo not drawn) | > 100 | > 100 | > 100 | > 100 | 79.5 | > 100 | > 100 | 73 |  |  |  |  |  | 77.5 |  |  | 
C/C(=C\c1ccccc1)C(O)C(=O)c1nc2ccc(Cl)cc2[nH]c1=O (stereo not drawn) | > 100 | > 100 | > 100 | > 100 | > 100 | > 100 | > 100 | > 100 |  |  |  |  |  | > 100 |  |  | 
CCOC(=O)C1C(NC(N)=O)N(Cc2ccccc2)C(=O)N1Cc1ccccc1 (stereo not drawn) | > 100 | > 100 | > 100 | > 100 | > 100 | > 100 | > 100 |  |  |  |  |  |  | > 100 |  |  | 
